Measured values published in ChEMBL document CHEMBL4649984, “CBP30, a selective CBP/p300 bromodomain inhibitor, suppresses human Th17 responses” (Proc Natl Acad Sci U S A, 2015).
pIC50: −log10 of the molar value. Where “and” joins values, the source holds several entries; their conditions need not be identical. Equal values may be shown once.

Tests used:
[1] = target: Bromodomain adjacent to zinc finger domain protein 1A (Homo sapiens) (UniProt Q9NRL2); settings: Compound concentration 10.0 uM, Protein concentration 2.0 uM
Peregrin (Homo sapiens) [2] = target: Peregrin (Homo sapiens) (UniProt P55201); settings: Compound concentration 10.0 uM, Protein concentration 2.0 uM
[3] = target: Protein polybromo-1 (Homo sapiens) (UniProt Q86U86); settings: Compound concentration 10.0 uM, Protein concentration 2.0 uM
Chain of Protein polybromo-1 (Homo sapiens) (Q86U86 whole entry): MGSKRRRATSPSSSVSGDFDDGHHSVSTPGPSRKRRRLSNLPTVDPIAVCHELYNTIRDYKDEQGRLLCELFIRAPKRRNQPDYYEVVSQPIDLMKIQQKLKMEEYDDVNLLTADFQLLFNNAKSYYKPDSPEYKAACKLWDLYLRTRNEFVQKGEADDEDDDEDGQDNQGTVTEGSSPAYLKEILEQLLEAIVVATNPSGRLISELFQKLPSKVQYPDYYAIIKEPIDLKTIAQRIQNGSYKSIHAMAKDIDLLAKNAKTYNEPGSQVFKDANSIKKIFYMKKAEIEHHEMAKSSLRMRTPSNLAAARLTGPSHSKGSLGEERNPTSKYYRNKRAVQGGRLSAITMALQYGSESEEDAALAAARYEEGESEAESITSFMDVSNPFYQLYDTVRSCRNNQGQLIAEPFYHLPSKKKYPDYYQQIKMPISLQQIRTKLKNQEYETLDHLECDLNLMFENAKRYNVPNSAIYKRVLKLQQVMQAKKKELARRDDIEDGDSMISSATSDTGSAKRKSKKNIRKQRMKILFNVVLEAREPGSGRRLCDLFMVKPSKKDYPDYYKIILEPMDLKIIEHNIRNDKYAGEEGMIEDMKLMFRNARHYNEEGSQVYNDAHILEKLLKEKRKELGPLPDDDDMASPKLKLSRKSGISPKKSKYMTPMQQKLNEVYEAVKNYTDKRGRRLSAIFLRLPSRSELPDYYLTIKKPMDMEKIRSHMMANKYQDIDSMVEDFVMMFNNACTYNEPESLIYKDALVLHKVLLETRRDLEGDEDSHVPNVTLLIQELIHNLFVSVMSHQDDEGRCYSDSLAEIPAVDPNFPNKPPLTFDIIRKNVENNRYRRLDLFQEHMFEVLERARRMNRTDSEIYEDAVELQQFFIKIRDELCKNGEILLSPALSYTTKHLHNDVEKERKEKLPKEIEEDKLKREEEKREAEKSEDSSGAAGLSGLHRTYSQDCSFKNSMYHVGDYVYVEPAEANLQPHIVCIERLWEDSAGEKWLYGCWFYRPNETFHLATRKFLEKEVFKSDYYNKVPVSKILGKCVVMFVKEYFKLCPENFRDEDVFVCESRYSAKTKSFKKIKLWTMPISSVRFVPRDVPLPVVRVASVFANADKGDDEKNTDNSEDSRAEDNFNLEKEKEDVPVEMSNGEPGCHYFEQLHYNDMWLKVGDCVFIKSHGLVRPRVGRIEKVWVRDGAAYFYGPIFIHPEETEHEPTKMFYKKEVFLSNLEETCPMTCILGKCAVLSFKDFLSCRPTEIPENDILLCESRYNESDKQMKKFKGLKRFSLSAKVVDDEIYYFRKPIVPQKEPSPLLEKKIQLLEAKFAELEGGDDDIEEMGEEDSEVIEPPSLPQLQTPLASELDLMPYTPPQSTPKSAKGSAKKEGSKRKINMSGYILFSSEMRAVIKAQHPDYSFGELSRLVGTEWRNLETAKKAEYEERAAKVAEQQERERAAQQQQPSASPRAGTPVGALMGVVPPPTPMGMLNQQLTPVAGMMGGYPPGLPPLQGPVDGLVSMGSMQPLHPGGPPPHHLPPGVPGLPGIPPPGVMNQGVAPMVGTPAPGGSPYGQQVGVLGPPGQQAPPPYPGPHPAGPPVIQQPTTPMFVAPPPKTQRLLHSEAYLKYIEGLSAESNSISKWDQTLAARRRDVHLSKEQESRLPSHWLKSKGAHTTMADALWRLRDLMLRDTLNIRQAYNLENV

[4] = target: Transcription intermediary factor 1-beta (Homo sapiens) (UniProt Q13263); settings: Compound concentration 10.0 uM, Protein concentration 2.0 uM
[5] = target: Histone acetyltransferase KAT2A (Homo sapiens) (UniProt Q92830); settings: Compound concentration 10.0 uM, Protein concentration 2.0 uM
[6] = target: Transcription intermediary factor 1-alpha (Homo sapiens) (UniProt O15164); settings: Compound concentration 10.0 uM, Protein concentration 2.0 uM
[7] = target: Bromodomain testis-specific protein (Homo sapiens) (UniProt Q58F21); settings: Compound concentration 10.0 uM, Protein concentration 2.0 uM
[8] = target: SWI/SNF-related matrix-associated actin-dependent regulator of chromatin subfamily A member 2 (Homo sapiens) (UniProt P51531); settings: Compound concentration 10.0 uM, Protein concentration 2.0 uM
[9] = target: Bromodomain-containing protein 2 (Homo sapiens) (UniProt P25440); settings: Compound concentration 10.0 uM, Protein concentration 2.0 uM
[10] = target: Bromodomain-containing protein 1 (Homo sapiens) (UniProt O95696); settings: Compound concentration 10.0 uM, Protein concentration 2.0 uM
[11] = target: Transcription initiation factor TFIID subunit 1 (Homo sapiens) (UniProt P21675); settings: Compound concentration 10.0 uM, Protein concentration 2.0 uM
Chain of Transcription initiation factor TFIID subunit 1 (Homo sapiens) (P21675 whole entry): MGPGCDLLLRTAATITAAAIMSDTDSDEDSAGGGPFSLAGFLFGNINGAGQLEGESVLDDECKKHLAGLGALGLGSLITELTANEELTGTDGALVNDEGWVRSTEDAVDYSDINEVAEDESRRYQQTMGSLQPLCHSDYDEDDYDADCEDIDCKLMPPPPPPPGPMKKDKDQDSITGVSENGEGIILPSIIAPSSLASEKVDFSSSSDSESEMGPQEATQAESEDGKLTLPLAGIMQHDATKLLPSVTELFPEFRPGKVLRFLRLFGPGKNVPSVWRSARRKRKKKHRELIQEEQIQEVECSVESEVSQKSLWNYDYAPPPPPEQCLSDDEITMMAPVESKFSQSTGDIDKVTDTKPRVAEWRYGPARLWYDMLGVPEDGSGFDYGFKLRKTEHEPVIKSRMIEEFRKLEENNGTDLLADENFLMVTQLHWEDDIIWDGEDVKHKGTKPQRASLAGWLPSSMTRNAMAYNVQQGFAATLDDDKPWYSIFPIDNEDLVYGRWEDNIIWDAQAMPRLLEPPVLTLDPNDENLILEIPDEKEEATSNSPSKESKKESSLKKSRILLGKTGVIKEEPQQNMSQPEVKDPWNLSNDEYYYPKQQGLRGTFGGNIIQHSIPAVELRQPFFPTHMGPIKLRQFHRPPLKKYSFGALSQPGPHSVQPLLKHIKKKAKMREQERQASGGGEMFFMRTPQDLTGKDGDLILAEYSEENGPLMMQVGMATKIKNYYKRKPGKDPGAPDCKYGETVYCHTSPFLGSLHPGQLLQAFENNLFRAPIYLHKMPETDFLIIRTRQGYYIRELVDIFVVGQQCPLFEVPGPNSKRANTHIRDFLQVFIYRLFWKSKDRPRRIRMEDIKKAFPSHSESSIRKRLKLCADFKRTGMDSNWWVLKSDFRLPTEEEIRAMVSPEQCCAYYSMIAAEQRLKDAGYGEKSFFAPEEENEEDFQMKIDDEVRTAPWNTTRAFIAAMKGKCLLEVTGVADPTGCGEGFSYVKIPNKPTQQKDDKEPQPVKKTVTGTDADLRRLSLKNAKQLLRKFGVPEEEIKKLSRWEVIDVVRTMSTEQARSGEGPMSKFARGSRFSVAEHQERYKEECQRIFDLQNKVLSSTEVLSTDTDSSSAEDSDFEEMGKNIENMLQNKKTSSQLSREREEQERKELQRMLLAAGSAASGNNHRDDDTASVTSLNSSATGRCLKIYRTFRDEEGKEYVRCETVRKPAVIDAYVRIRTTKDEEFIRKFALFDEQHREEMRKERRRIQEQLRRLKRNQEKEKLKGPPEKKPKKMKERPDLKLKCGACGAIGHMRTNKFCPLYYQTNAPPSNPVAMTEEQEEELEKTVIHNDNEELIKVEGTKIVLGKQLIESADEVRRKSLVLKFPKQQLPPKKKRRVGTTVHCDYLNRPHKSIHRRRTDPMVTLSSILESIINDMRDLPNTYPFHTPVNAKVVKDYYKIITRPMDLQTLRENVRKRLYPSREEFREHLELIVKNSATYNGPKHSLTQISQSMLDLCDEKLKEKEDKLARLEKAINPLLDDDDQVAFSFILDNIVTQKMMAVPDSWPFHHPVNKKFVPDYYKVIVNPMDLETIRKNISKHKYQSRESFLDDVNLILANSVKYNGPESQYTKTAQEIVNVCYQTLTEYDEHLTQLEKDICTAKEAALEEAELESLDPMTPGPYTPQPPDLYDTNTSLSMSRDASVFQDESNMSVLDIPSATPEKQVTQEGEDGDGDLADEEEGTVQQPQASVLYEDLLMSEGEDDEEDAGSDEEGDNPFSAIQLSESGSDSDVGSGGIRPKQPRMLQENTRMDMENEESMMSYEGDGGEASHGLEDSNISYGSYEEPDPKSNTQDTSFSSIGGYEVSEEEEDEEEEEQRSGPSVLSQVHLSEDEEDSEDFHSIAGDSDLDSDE

[12] = target: PH-interacting protein (Homo sapiens) (UniProt Q8WWQ0); settings: Compound concentration 10.0 uM, Protein concentration 2.0 uM
[13] = target: Bromodomain-containing protein 2 (Homo sapiens) (UniProt P25440); settings: Compound concentration 10.0 uM, Protein concentration 2.0 uM; remark: listed apart in the source
[14] = target: Bromodomain adjacent to zinc finger domain protein 2B (Homo sapiens) (UniProt Q9UIF8); settings: Compound concentration 10.0 uM, Protein concentration 2.0 uM
[15] = target: CREB-binding protein (Homo sapiens) (UniProt Q92793); settings: Compound concentration 10.0 uM, Protein concentration 2.0 uM
[16] = target: Transcription initiation factor TFIID subunit 1-like (Homo sapiens) (UniProt Q8IZX4); settings: Compound concentration 10.0 uM, Protein concentration 2.0 uM
[17] = target: Protein polybromo-1 (Homo sapiens) (UniProt Q86U86); assay: Thermal Shift Assay. Domain start/stop: R487-D598; settings: Compound concentration 10.0 uM, Protein concentration 2.0 uM
[18] = target: Bromodomain and WD repeat-containing protein 3 (Homo sapiens) (UniProt Q6RI45); settings: Compound concentration 10.0 uM, Protein concentration 2.0 uM
[19] = target: Bromodomain adjacent to zinc finger domain protein 2B (Homo sapiens) (UniProt Q9UIF8); assay: Alphascreen assay. Domain start/stop: S1858-S1972; settings: Compound concentration 25.0 uM, Protein concentration 25.0 uM
[20] = target: Histone-lysine N-methyltransferase ASH1L (Homo sapiens) (UniProt Q9NR48); settings: Compound concentration 10.0 uM, Protein concentration 2.0 uM
[21] = target: Histone acetyltransferase KAT2B (Homo sapiens) (UniProt Q92831); settings: Compound concentration 10.0 uM, Protein concentration 2.0 uM
[22] = target: Tripartite motif-containing protein 66 (Homo sapiens) (UniProt O15016); assay: Thermal Shift Assay. Domain start/stop: M1091-S1218; settings: Compound concentration 10.0 uM, Protein concentration 2.0 uM
[23] = target: Protein polybromo-1 (Homo sapiens) (UniProt Q86U86); settings: Compound concentration 10.0 uM, Protein concentration 2.0 uM; remark: listed apart in the source
[24] = target: Bromodomain testis-specific protein (Homo sapiens) (UniProt Q58F21); settings: Compound concentration 10.0 uM, Protein concentration 2.0 uM; remark: listed apart in the source
[25] = target: ATPase family AAA domain-containing protein 2 (Homo sapiens) (UniProt Q6PL18); settings: Compound concentration 25.0 uM, Protein concentration 200.0 uM
Description: Alphascreen assay. Domain start/stop: Q981-R1108

[26] = target: Nuclear body protein SP140 (Homo sapiens) (UniProt Q13342); settings: Compound concentration 10.0 uM, Protein concentration 2.0 uM
Peregrin (Homo sapiens) [27] = target: Peregrin (Homo sapiens) (UniProt P55201); settings: Compound concentration 10.0 uM, Protein concentration 2.0 uM; remark: listed apart in the source
[28] = target: T1, Bromodomain-containing protein 4 (Homo sapiens, UniProt O60885); assay: Alphascreen assay. Binding to BRD4A (domain start/stop: N44-E168) by alphascreen assay
[29] = target: Bromodomain-containing protein 3 (Homo sapiens) (UniProt Q15059); assay: Thermal Shift Assay. Domain start/stop: P24-E144; settings: Compound concentration 10.0 uM, Protein concentration 2.0 uM
[30] = target: Transcription initiation factor TFIID subunit 1 (Homo sapiens) (UniProt P21675); settings: Compound concentration 10.0 uM, Protein concentration 2.0 uM; remark: listed apart in the source
[31] = target: Chromatin remodeling regulator CECR2 (Homo sapiens) (UniProt Q9BXF3); settings: Compound concentration 10.0 uM, Protein concentration 2.0 uM
Chain of Chromatin remodeling regulator CECR2 (Homo sapiens) (Q9BXF3 whole entry, looked up, the tested form may be a part): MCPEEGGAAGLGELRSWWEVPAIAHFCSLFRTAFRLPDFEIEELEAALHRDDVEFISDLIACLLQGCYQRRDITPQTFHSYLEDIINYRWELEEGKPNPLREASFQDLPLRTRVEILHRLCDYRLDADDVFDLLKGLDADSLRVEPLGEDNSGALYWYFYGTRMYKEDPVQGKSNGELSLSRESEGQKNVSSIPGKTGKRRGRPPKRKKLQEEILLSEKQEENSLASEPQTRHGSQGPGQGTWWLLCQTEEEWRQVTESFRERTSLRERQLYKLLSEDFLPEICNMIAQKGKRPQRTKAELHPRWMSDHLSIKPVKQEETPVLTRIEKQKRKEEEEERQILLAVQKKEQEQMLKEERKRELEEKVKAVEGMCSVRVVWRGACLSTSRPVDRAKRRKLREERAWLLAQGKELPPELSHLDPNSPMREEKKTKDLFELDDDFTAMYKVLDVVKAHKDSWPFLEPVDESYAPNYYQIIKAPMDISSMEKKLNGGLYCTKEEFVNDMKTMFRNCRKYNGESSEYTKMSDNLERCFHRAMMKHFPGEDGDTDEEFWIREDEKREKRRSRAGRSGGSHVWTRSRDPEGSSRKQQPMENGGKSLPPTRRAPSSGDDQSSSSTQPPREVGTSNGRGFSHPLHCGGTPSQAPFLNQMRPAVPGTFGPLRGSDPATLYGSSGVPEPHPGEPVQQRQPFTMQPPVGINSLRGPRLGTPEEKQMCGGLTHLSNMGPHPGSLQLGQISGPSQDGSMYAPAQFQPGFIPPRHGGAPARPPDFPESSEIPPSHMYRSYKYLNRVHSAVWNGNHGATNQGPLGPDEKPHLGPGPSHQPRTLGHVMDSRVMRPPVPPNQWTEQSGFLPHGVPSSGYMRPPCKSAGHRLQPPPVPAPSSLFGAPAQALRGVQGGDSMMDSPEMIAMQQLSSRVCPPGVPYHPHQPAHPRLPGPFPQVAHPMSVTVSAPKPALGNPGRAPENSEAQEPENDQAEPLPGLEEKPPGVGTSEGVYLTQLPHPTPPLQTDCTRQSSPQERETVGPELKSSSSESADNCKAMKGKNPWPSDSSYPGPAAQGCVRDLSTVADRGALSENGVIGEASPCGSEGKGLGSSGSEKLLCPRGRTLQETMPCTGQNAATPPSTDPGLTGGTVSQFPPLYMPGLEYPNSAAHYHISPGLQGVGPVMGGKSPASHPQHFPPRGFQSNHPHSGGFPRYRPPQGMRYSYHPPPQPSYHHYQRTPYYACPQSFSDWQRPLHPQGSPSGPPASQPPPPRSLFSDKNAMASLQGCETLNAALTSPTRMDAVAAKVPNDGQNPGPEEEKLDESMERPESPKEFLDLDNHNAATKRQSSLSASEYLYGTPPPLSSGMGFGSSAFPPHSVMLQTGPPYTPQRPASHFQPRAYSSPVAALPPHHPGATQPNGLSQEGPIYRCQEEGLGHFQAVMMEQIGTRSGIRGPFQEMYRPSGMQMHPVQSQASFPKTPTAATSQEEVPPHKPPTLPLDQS

[32] = target: Protein polybromo-1 (Homo sapiens) (UniProt Q86U86); settings: Compound concentration 10.0 uM, Protein concentration 2.0 uM; remark: listed apart in the source
[33] = target: Bromodomain and PHD finger-containing protein 3 (Homo sapiens) (UniProt Q9ULD4); settings: Compound concentration 10.0 uM, Protein concentration 2.0 uM
[34] = target: SWI/SNF-related matrix-associated actin-dependent regulator of chromatin subfamily A member 4 (Homo sapiens) (UniProt P51532); settings: Compound concentration 10.0 uM, Protein concentration 2.0 uM
[35] = target: PH-interacting protein (Homo sapiens) (UniProt Q8WWQ0); settings: Compound concentration 50.0 uM, Protein concentration 0.025 uM
[36] = target: Transcription initiation factor TFIID subunit 1-like (Homo sapiens) (UniProt Q8IZX4); settings: Compound concentration 10.0 uM, Protein concentration 2.0 uM; remark: listed apart in the source
[37] = target: ATPase family AAA domain-containing protein 2B (Homo sapiens) (UniProt Q9ULI0); settings: Compound concentration 10.0 uM, Protein concentration 2.0 uM
[38] = target: Protein polybromo-1 (Homo sapiens) (UniProt Q86U86); assay: Thermal Shift Assay. Domain start/stop: H23-D159; settings: Compound concentration 10.0 uM, Protein concentration 2.0 uM
[39] = target: Histone acetyltransferase p300 (Homo sapiens) (UniProt Q09472); assay: Thermal Shift Assay. Domain start/stop: A1040-S1171; settings: Compound concentration 10.0 uM, Protein concentration 2.0 uM
[40] = target: T1, Bromodomain-containing protein 4; settings: Compound concentration 10.0 uM, Protein concentration 2.0 uM
[41] = target: Nucleosome-remodeling factor subunit BPTF (Homo sapiens) (UniProt Q12830); settings: Compound concentration 10.0 uM, Protein concentration 2.0 uM
[42] = target: ATPase family AAA domain-containing protein 2 (Homo sapiens) (UniProt Q6PL18); settings: Compound concentration 10.0 uM, Protein concentration 2.0 uM
[43] = target: Bromodomain and WD repeat-containing protein 1 (Homo sapiens) (UniProt Q9NSI6); settings: Compound concentration 10.0 uM, Protein concentration 2.0 uM
[44] = target: Chromatin remodeling regulator CECR2 (Homo sapiens) (UniProt Q9BXF3); settings: Compound concentration 20.0 uM, Protein concentration 12.5 uM
[45] = target: Bromodomain adjacent to zinc finger domain protein 2A (Homo sapiens) (UniProt Q9UIF9); settings: Compound concentration 10.0 uM, Protein concentration 2.0 uM
[46] = target: Histone acetyltransferase p300 (Homo sapiens) (UniProt Q09472); settings: Compound concentration 10.0 uM, Protein concentration 2.0 uM
[47] = target: Bromodomain-containing protein 3 (Homo sapiens) (UniProt Q15059); settings: Compound concentration 10.0 uM, Protein concentration 2.0 uM
[48] = target: Protein polybromo-1 (Homo sapiens) (UniProt Q86U86); settings: Compound concentration 10.0 uM, Protein concentration 2.0 uM; remark: listed apart in the source
[49] = target: Bromodomain-containing protein 9 (Homo sapiens) (UniProt Q9H8M2); settings: Compound concentration 10.0 uM, Protein concentration 2.0 uM
[50] = target: Nuclear body protein SP140-like protein (Homo sapiens) (UniProt Q9H930); settings: Compound concentration 10.0 uM, Protein concentration 2.0 uM

COc1ccc(CCc2nc3cc(-c4c(C)noc4C)ccc3n2C[C@H](C)N2CCOCC2)cc1Cl
ΔTm [1]: -0.45 °C | ΔTm (Peregrin (Homo sapiens) [2]): 1.46 °C | ΔTm [3]: 0.23 °C | ΔTm [4]: 0.49 °C and -0.34 °C | ΔTm [5]: 0.17 °C | ΔTm [6]: 0.67 °C | ΔTm [7]: 0.66 °C | ΔTm [8]: 0.06 °C | ΔTm [9]: 1.41 °C | ΔTm [10]: 0.43 °C and 0.36 °C | ΔTm [11]: 0.26 °C and 0.07 °C | ΔTm [12]: 0.57 °C | ΔTm [13]: 0.99 °C | ΔTm [14]: 0.17 °C | ΔTm [15]: 10.2 °C and 9.55 °C | ΔTm [16]: -0.06 °C | ΔTm [17]: 0.23 °C | ΔTm [18]: 0.97 °C | inhibition [19]: 24% | ΔTm [20]: -0.29 °C | ΔTm [21]: 0.46 °C | ΔTm [22]: 0.82 °C | ΔTm [23]: 0.46 °C | ΔTm [24]: 0.37 °C | inhibition [25]: 24.4% | ΔTm [26]: 0.37 °C | ΔTm (Peregrin (Homo sapiens) [27]): 0.42 °C | pIC50 [28]: 4.56 and 5.15 | ΔTm [29]: 1.83 °C | ΔTm [30]: -0.12 °C | ΔTm [31]: 0.18 °C and 1.55 °C | ΔTm [32]: 0.12 °C | ΔTm [33]: 0.46 °C | ΔTm [34]: 0.34 °C | inhibition [35]: 35.5% and 42.4% | ΔTm [36]: 1.11 °C | ΔTm [37]: 0.45 °C | ΔTm [38]: 0.03 °C | ΔTm [39]: 9.68 °C | ΔTm [40]: 0.56 °C | ΔTm [41]: 0.21 °C and -1.05 °C | ΔTm [42]: -2.5 °C | ΔTm [43]: 0.96 °C | inhibition [44]: 58.8% | ΔTm [45]: -0.18 °C | ΔTm [46]: 10.2 °C | ΔTm [47]: 1.25 °C | ΔTm [48]: 0.46 °C and -0.03 °C | ΔTm [49]: -0.12 °C and -0.5 °C | ΔTm [50]: 0.17 °C
